Assay results taken from publication PMC6152618, “Antimicrobial Activity of Truncated and Polyvalent Peptides Derived from the FKCRRWQWRMKKGLA Sequence against Escherichia coli ATCC 25922 and Staphylococcus aureus ATCC 25923” (Molecules : A Journal of Synthetic Chemistry and Natural …, 2017).
Converted amounts (≈) assume the structure as drawn. Where two headings read alike, the source gives them in different places. Ends that are not written are not given here.

Key:
[1] = tested on: S. aureus 42D; details: cited from earlier work
Excerpt: (§1) Please note that in this sequence some C-terminal positions have been changed compared to LfcinB 17–31 [38, 48]. The peptide LfcinB 17–31 has been studied for its relative structure and antibacterial activit ...

[2] = tested on: E. coli ML35; details: cited from earlier work
Excerpt: as §1

[3] = tested on: Escherichia coli ATCC 25922; format: cell-based
Procedure: (§2) The MIC was determined using a microdilution assay. In brief, bacterial strains were incubated for 18 to 24 h at 37 °C in an Müller-Hinton (MH) broth until an optical density of 0.15 to 0.30 (620 nm) was obtained. Next, 90 μL of Mueller-Hinton broth (MHB) was mixed with […], and serial dilutions (200, 100, 50, 25, 12.5 and 6.2) were prepared in 96-well microplates (final volume 100 μL/well). Then, 10 μL of inoculum (2 × 10^6 CFU/mL) was added to each well. The final volume in each well was 100 μL. Then they were incubated for 24 h at 37 °C; the absorbance at 620 nm was measured using an Asys Expert Plus ELISA reader. For determining the MBC, a small sample was taken from each well using an inoculation loop, and then was spread on MH agar plates and incubated overnight at 37 °C. MBC was considered on the plate which presented no bacterial growth. Each of these tests was performed twice (n = 2).

[4] = tested on: Staphylococcus aureus ATCC 25923; format: cell-based
Procedure: as §2

[5] = tested on: S. aureus; set-up: method as in PMID 8980754; details: cited from earlier work
[6] = tested on: E. coli O9; set-up: method as in PMID 8980754; details: cited from earlier work
[7] = tested on: E. coli L361; set-up: method as in PMID 8980754; details: cited from earlier work
[8] = tested on: S. aureus; details: cited from earlier work
Excerpt: as §1

[9] = tested on: E coli; details: cited from earlier work
Excerpt: as §1

[10] = microdilution, Mueller-Hinton broth, 24 h at 37 °C, absorbance 620 nm, n = 2
[11] = sample of each well spread on MH agar, overnight 37 °C, no bacterial growth, n = 2

Row | Compound | MBC E. coli ATCC 25922 ([3]; ATCC 25922) [µM] | MIC E. coli ATCC 25922 ([3]; ATCC 25922, 24 h) [µM] | MBC S. aureus ATCC 25923 ([4]; ATCC 25923) [µM] | MIC S. aureus ATCC 25923 ([4]; ATCC 25923, 24 h) [µM] | other results
1 | LfcinB 20–30: literature analogue of LfcinB 20-31 (CVRRAFALECI; lactoferricin B; UniProt P24627 55-65, looked up, fragment) |  |  |  |  | LD99.9 S. aureus 42D [1]: 7.5 µM; LD99.9 E. coli ML35 [2]: 15 µM
2 | RRWQWR-NH2 [LfcinB 20–25, reference compound] | >200 | >200 | >200 | >200 | 
3 | KCRRWQWRMKKLGA [LfcinB 18–31, …, truncated peptide of LfcinB 17–31] |  |  |  |  | MIC E. coli ATCC 25922 [3, 10]: >200 µM; MBC E. coli ATCC 25922 [3, 11]: >200 µM; MIC S. aureus ATCC 25923 [4, 10]: >200 µM; MBC S. aureus ATCC 25923 [4, 11]: >200 µM
4 | CRRWQWRMKKLGA-NH2 [LfcinB 19–31] | 100 | 100 | >200 | >200 | 
5 | RWQWRWQWR [(LfcinB 21–25)Pal] |  | 12.5 |  |  | 
6 | FKCRRWQWRMKKL-NH2 [LfcinB 17–29] | >200 | 200 |  |  | 
7 | FKCRRWQWRMKKLG-NH2 [LfcinB 17–30] | 200 | 200 | >200 | >200 | 
8 | (FKARRWQWRMKKLGA)2K-Ahx-C [([Ala^19]-LfcinB 17–31)2] |  |  |  |  | MIC S. aureus ATCC 25923 [4, 10]: 12.5 µM; MBC S. aureus ATCC 25923 [4, 11]: 12.5 µM
9 | FKCRRWQWR-Homoserine lactone [subfragment 1, literature peptide …-Homoserine lactone] |  |  |  |  | antibacterial activity against S. aureus [5]: > 50 µM; antibacterial activity against E. coli O9 [6]: 15 µM; antibacterial activity against E. coli L361 [7]: 10 µM
10 | SKCYQWQRRMRKLGA |  |  |  |  | MIC S. aureus [8]: > 500 µM; MIC E coli [9]: 252 µM
11 | RRWQWRMKKLGA [LfcinB 20–31] | >200 | 200 | >200 | >200 | 
12 | CSCC[C@H](NC(=O)[C@H](CCCNC(=N)N)NC(=O)[C@H](Cc1c[nH]c2ccccc12)NC(=O)[C@H](CCC(N)=O)NC(=O)[C@H](Cc1c[nH]c2ccccc12)NC(=O)[C@H](CCCNC(=N)N)NC(=O)[C@H](CCCNC(=N)N)NC(=O)[C@H](C)NC(=O)[C@H](CCCCN)NC(=O)[C@@H](N)Cc1ccccc1)C(=O)N[C@@H](CCCCN)C(=O)N[C@@H](CCCCN)C(=O)N[C@@H](CC(C)C)C(=O)NCC(=O)N[C@@H](C)C(=O)O [[Ala^19]-LfcinB 17–31] |  |  | >200 | >200 | 
13 | CSCC[C@H](NC(=O)[C@H](CCCNC(=N)N)NC(=O)[C@H](Cc1c[nH]c2ccccc12)NC(=O)[C@H](CCC(N)=O)NC(=O)[C@H](Cc1c[nH]c2ccccc12)NC(=O)[C@H](CCCNC(=N)N)NC(=O)[C@H](CCCNC(=N)N)NC(=O)[C@H](CS)NC(=O)[C@H](CCCCN)NC(=O)[C@@H](N)Cc1ccccc1)C(=O)N[C@@H](CCCCN)C(=O)N[C@@H](CCCCN)C(=O)N[C@@H](CC(C)C)C(=O)NCC(=O)N[C@@H](C)C(N)=O [LfcinB 17–31, reference compound] |  |  |  |  | MIC E. coli ATCC 25922 [3, 10]: 200 µM (≈ 399 µg/mL); MBC E. coli ATCC 25922 [3, 11]: >200 µM; MIC S. aureus ATCC 25923 [4, 10]: >200 µM; MBC S. aureus ATCC 25923 [4, 11]: >200 µM
14 | FKCRRWQWRM-NH2 [LfcinB 17–26] |  |  |  |  | MIC E. coli ATCC 25922 [3, 10]: 100 µM; MBC E. coli ATCC 25922 [3, 11]: 200 µM; MIC S. aureus ATCC 25923 [4, 10]: 200 µM; MBC S. aureus ATCC 25923 [4, 11]: 200 µM
15 | FKCRRWQWRMK-NH2 [LfcinB 17–27] | 200 | 100 | >200 | >200 | 
16 | FKCRRWQWRMKK-NH2 [LfcinB 17–28] | 200 | 200 | >200 | >200 | 
17 | FKCRRWQWR-NH2 [LfcinB 17–25] | 100 | 100 | >200 | >200 | 
